PubChem BioAssay AID1272 (The Scripps Research Institute Molecular Screening Center, 2008)
The source made the active and inactive calls. The rule behind the calls is not given here.

Biological target: Neuropeptide Y receptor type 2 (Homo sapiens) (UniProt P49146)
Experiment: NPY-Y2 receptor antagonist potency, dose response, cell-based (AID 1272)
Settings: NPY-Y2 expressing cells, antagonist inhibition read-out

Sequence of Neuropeptide Y receptor type 2 (Homo sapiens) (P49146 whole entry, looked up): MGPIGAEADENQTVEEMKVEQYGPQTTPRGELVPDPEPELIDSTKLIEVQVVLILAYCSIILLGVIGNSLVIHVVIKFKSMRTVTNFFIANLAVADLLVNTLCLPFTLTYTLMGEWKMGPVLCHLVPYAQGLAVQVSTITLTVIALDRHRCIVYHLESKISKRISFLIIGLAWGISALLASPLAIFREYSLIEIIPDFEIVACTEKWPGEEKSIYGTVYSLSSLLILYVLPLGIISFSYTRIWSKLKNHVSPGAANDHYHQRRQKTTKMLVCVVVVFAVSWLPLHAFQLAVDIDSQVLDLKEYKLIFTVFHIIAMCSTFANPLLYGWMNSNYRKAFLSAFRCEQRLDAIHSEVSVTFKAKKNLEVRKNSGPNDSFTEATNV

With `Cc1cccc(CSCCNC(=O)COc2ccc(Cl)cc2)c1` as the compound, how does the IC50 read?
The IC50 was < 35 µM (inactive).
